From PubChem BioAssay AID493146 (Sanford-Burnham Center for Chemical Genomics, 2011) come the findings set out here.

Usually EC50 stands for the concentration needed to bring the measured effect to its halfway point.

Active and inactive are the calls of the source. No rule for the calls is given here.

The assay concerns the target intestinal alkaline phosphatase (Alpi), Mus musculus. Put plainly: activators of mouse IAP enzyme, SAR follow-up, biochemical, luminescence (AID 493146). The settings on record: purified mouse IAP, luminescent substrate, activation.
Turning to `COc1ccc(Cl)cc1NC(=O)CSc1sc2c(O)cc(=O)[nH]c2c1C#N`, the EC50 was > 100 µM (inactive). With `O=C(CN1C(=O)/C(=C\c2ccco2)SC1=S)Nc1ccccc1C(=O)O`, the EC50 is > 100 µM (inactive). With `COc1cccc(CNC(=O)CCNS(=O)(=O)c2ccc3[nH]c(=O)oc3c2)c1`, the EC50 was > 100 µM (inactive). Regarding `O=C(CN1C(=O)/C(=C/c2ccco2)SC1=S)Nc1ccc(C(=O)O)c(O)c1`, the EC50 was > 100 µM (inactive).

`CCOC(=O)N1CCN(S(=O)(=O)c2ccc3[nH]c(=O)oc3c2)CC1`: the EC50 was > 100 µM (inactive). The same measure for `CCN(C(=O)CN1C(=O)/C(=C\c2ccco2)SC1=S)C1CCS(=O)(=O)C1` (stereo not given): > 100 µM (inactive). The value for `CCc1ccc(NC(=O)CN(C)S(=O)(=O)c2ccc3[nH]c(=O)oc3c2)cc1` was > 100 µM (inactive); that for `O=C(CN1C(=O)/C(=C/c2ccco2)SC1=S)NC1C=CS(=O)(=O)C1` (stereo not given) was > 100 µM (inactive); that for `CC(C)c1ccc(NC(=O)CCNS(=O)(=O)c2ccc3[nH]c(=O)oc3c2)cc1` was > 100 µM (inactive).

As for `N#Cc1c(SCC(=O)Nc2nncs2)sc2c(O)cc(=O)[nH]c12`, the EC50 is > 100 µM (inactive). `CCOc1cccc(NC(=O)CSc2sc3c(O)cc(=O)[nH]c3c2C#N)c1`: the EC50 is > 100 µM (inactive). As for `N#Cc1c(SCC(=O)Nc2cccc(F)c2)sc2c(O)cc(=O)[nH]c12`, the EC50 was > 100 µM (inactive).

On to `COc1ccc(NC(=O)CCNS(=O)(=O)c2ccc3[nH]c(=O)oc3c2)cc1Cl`, for which the EC50 was > 100 µM (inactive). The value for `O=C(CN1C(=O)/C(=C/c2ccco2)SC1=S)NCCc1ccc(O)cc1` was > 100 µM (inactive). For the molecule `O=C(CCN1C(=O)/C(=C\c2ccco2)SC1=S)Nc1ccc(C(=O)O)c(O)c1`, the EC50 was > 100 µM (inactive). With `CSc1cccc(NC(=O)CCNS(=O)(=O)c2ccc3[nH]c(=O)oc3c2)c1`, the EC50 was > 100 µM (inactive). The value for `CC(C)NC(=O)CSc1sc2c(O)cc(=O)[nH]c2c1C#N` was > 100 µM (inactive).

For `O=C(CN1C(=O)/C(=C\c2ccco2)SC1=S)Nc1ccc(O)cc1C(=O)O`, the EC50 was > 100 µM (inactive).

As for `Cc1cc(NC(=O)CSc2sc3c(O)cc(=O)[nH]c3c2C#N)ccc1Br`, the EC50 was > 100 µM (inactive).

In the case of `O=C(N/N=C/c1ccco1)c1cc(O)c(O)c(O)c1`, the EC50 was > 100 µM (inactive).

Turning to `N#Cc1c(SCC(=O)Nc2nccs2)sc2c(O)cc(=O)[nH]c12`, the EC50 was > 100 µM (inactive).

For the molecule `O=C(N/N=C/C1CC=CCC1)c1cc(O)c(O)c(O)c1` (stereo not given), the EC50 is > 100 µM (inactive). The value for `CCSc1nnc(NC(=O)CSc2sc3c(O)cc(=O)[nH]c3c2C#N)s1` was > 100 µM (inactive).

On to `CCOc1ccccc1CNC(=O)CCNS(=O)(=O)c1ccc2[nH]c(=O)oc2c1`, for which the EC50 is > 100 µM (inactive). With `O=C(NN=Cc1cccnc1)c1cc(O)c(O)c(O)c1`, the EC50 is > 100 µM (inactive).
